# Experimental data from article PMC2267855, “Site-directed mutagenesis of Arginine282 suggests how protons and peptides are co-transported by rabbit PepT1” (The International Journal of Biochemistry & Cell Biology, 2008).
# Where a chain is given by its changes, count along the chain named. Where a SMILES comes first, the peptide text is derived from it.
# Tests used:
# Format in all cases: cell-based, rabbit
# wild-type PepT1 = biological target: T1, wild-type PepT1 (Oryctolagus cuniculus, UniProt P36836); test: Accumulation of [3H]-D-Phe-L-Gln above the extracellular concentration by oocytes expressing wild-type PepT1
# T1 construct: expressed in transfected cells; host or cells: Xenopus laevis oocytes injected with cRNA
# T1 sequence (P36836 1-707): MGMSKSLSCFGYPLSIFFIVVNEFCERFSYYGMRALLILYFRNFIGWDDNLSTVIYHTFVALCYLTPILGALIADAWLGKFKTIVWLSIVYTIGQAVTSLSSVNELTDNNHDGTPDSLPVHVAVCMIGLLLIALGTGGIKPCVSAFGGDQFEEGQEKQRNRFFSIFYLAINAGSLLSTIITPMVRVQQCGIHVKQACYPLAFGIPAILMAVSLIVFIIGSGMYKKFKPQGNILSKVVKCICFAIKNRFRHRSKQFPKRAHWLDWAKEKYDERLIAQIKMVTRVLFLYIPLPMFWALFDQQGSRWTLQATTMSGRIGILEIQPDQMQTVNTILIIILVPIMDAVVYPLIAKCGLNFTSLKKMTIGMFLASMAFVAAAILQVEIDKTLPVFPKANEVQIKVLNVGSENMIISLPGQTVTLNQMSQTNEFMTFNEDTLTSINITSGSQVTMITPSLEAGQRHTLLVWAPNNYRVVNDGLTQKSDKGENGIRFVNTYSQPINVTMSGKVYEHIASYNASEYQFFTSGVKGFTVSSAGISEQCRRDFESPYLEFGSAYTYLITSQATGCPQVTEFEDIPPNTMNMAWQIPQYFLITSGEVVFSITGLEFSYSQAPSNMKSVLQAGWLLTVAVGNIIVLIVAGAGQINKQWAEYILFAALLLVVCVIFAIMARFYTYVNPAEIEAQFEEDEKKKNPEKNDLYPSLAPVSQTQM
# Protocol: (§1) Zero-trans uptake of [^3H]-D-Phe-L-Gln (17.4 Ci/mmole, custom synthesised, Cambridge Research Biochemicals, Stockton-on-Tees, UK) was performed as previously described ([Meredith, 2004]). Briefly, 5 oocytes were incubated in 100 μl of uptake medium (95 mM NaCl, 2 mM KCl, 1 mM CaCl2, 0.42 mM MgCl2, 10 mM Tris/Hepes pH 7.4 or Tris/Mes pH 5.5) with tracer (0.4 μM) [^3H]-D-Phe-L-Gln. After incubation, the oocytes were washed sequentially five times in 1 ml of ice-cold 120 mM NaCl solution, lysed individually with 100 μl 2% (w/v) SDS and liquid scintillation counted. As a control non-injected oocytes were also incubated in uptake medium with [^3H]-D-Phe-L-Gln as above.
# R282K-PepT1 = biological target: T2, R282K-PepT1 (Oryctolagus cuniculus, UniProt P36836, R282K); test: Inhibition of [3H]-D-Phe-L-Gln uptake into Xenopus oocytes expressing R282K-PepT1 (competition, Ki); details: pHout 5.5, 0.4 μM [3H]-D-Phe-L-Gln
# T2 construct: expressed in transfected cells; host or cells: Xenopus laevis oocytes injected with cRNA
# T2 sequence (P36836 1-707 R282K): T1 sequence (P36836 1-707) with R282K
# Protocol: as §1
# (§2) The affinity of wild-type and mutant PepT1 were assessed by competition studies with 0.4 μM [^3H]-D-Phe-L-Gln and Gly-L-Gln present in the uptake medium in concentrations from 0 to 2 mM using the protocol above, and the Ki calculated using the method of [Deves and Boyd (1989)].
# R282H-PepT1 = biological target: T3, R282H-PepT1 (Oryctolagus cuniculus, UniProt P36836, R282H); test: Inhibition of [3H]-D-Phe-L-Gln uptake into Xenopus oocytes expressing R282H-PepT1 (competition, Ki); details: pHout 5.5, 0.4 μM [3H]-D-Phe-L-Gln
# T3 construct: expressed in transfected cells; host or cells: Xenopus laevis oocytes injected with cRNA
# T3 sequence (P36836 1-707 R282H): T1 sequence (P36836 1-707) with R282H
# Protocol: as §1, §2
SMILES,"accumulation above extracellular concentration (wild-type PepT1; third comparison, printed as wild-type PepT1 at pHout 7.4, 8 h incubation)","accumulation above extracellular concentration (wild-type PepT1; third comparison, printed as wild-type PepT1 at pHout 7.4, 24 h incubation)","accumulation above extracellular concentration (wild-type PepT1; wild-type PepT1, pHout 5.5, 8 h incubation)","accumulation above extracellular concentration (wild-type PepT1; wild-type PepT1, pHout 5.5, 24 h incubation)","accumulation above extracellular concentration (wild-type PepT1; wild-type PepT1, pHout 7.4, 8 h incubation)","accumulation above extracellular concentration (wild-type PepT1; wild-type PepT1, pHout 7.4, 24 h incubation)",Ki (R282K-PepT1) [µM],Ki (R282H-PepT1) [µM]
NC(=O)CC[C@H](NC(=O)[C@H](N)Cc1ccccc1)C(=O)O [D-Phe-L-Gln],1.0 ± 0.4,1.5 ± 0.3,8.0 ± 1.4,8.3 ± 1.0,2.5 ± 0.5,3.1 ± 0.5 -fold,,
NCC(=O)N[C@@H](CCC(N)=O)C(=O)O [Gly-L-Gln] (H-Gly-Gln-OH),,,,,,,480 ± 260,300 ± 150
